Patent publication US7989447B2, “1,5 and 3,6-substituted indole compounds having NOS inhibitory activity” (NeurAxon, Inc., priority 2006, dated 2011)

Tests used:
Format in all cases: biochemical
[1] = target: human neuronal constitutive NOS (nNOS) (Homo sapiens, UniProt P29475); assay: nNOS (Human) enzyme assay, radiometric conversion of [3H]L-arginine to [3H]L-citrulline; conditions: for Ratio e/n: human eNOS / human nNOS; for IC50: recombinant human enzyme, 37° C., 45 min, read-out: Human nNOS
Description: To measure enzyme inhibition, a 15 μL solution of a test substance was added to the enzyme assay solution, followed by a pre-incubation time of 15 min at RT. […] The total volume of the reaction mixture was 150 μL in every well. The reactions were carried out at 37° C. for 45 min. The reaction was stopped by adding 20 μL of ice-cold buffer containing 100 mM HEPES, 3 mM EGTA, 3 mM EDTA, pH=5.5. [^3H]L-citrulline was separated by DOWEX (ion-exchange resin DOWEX 50 W X 8-400, SIGMA) and the DOWEX was removed by spinning at 12,000 g for 10 min in the centrifuge. […] All assays were performed at least in duplicate. Standard deviations were 10% or less.

[2] = target: human endothelial constitutive NOS (eNOS) (Homo sapiens, UniProt P29474); assay: eNOS (Human) enzyme assay, radiometric conversion of [3H]L-arginine to [3H]L-citrulline; conditions: recombinant human enzyme, 37° C., 45 min; read-out: Human eNOS
Description: (§1) Recombinant human inducible NOS (iNOS), human endothelial constitutive NOS (eNOS) or human neuronal constitutive NOS(nNOS) were produced in Baculovirus-infected Sf9 cells (ALEXIS). In a radiometric method, NO synthase activity was determined by measuring the conversion of [^3H]L-arginine to [^3H]L-citrulline. To measure iNOS, 10 μL of enzyme was added to 100 μL of 100 mM HEPES, pH=7,4, containing 1 mM CaCl2, 1 mM EDTA, 1 mM dithiotheitol, 1 μM FMN, 1 μM FAD, 10 μM tetrahydrobiopterin, 120 μM NADPH, and 100 nM CaM. To measure eNOS or nNOS, 10 μL of enzyme was added to 100 μL of 40 mM HEPES, pH=7.4, containing 2.4 mM CaCl2, 1 mM MgCl2, 1 mg/mL BSA, 1 mM EDTA, 1 mM dithiothreitol, 1 μM FMN, 1 μM FAD, 10 μM tetrahydrobiopterin, 1 mM NADPH, and 1.2 μM CaM.
(§2) To measure enzyme inhibition, a 15 μL solution of a test substance was added to the enzyme assay solution, followed by a pre-incubation time of 15 min at RT. The reaction was initiated by addition of 20 μL L-arginine containing 0.25 μCi of [^3H]arginine/mL and 24 μM L-arginine. The total volume of the reaction mixture was 150 μL in every well. The reactions were carried out at 37° C. for 45 min. The reaction was stopped by adding 20 μL of ice-cold buffer containing 100 mM HEPES, 3 mM EGTA, 3 mM EDTA, pH=5.5. [^3H]L-citrulline was separated by DOWEX (ion-exchange resin DOWEX 50 W X 8-400, SIGMA) and the DOWEX was removed by spinning at 12,000 g for 10 min in the centrifuge. An 70 μL aliquot of the supernatant was added to 100 μL of scintillation fluid and the samples were counted in a liquid scintillation counter (1450 Microbeta Jet, Wallac). […] All assays were performed at least in duplicate.

[3] = target: human inducible NOS (iNOS) (Homo sapiens, UniProt P35228); assay: iNOS (Human) enzyme assay, radiometric conversion of [3H]L-arginine to [3H]L-citrulline; conditions: recombinant human enzyme, 37° C., 45 min
Description: as §1, §2

Sequence of human neuronal constitutive NOS (nNOS) (P29475 whole entry): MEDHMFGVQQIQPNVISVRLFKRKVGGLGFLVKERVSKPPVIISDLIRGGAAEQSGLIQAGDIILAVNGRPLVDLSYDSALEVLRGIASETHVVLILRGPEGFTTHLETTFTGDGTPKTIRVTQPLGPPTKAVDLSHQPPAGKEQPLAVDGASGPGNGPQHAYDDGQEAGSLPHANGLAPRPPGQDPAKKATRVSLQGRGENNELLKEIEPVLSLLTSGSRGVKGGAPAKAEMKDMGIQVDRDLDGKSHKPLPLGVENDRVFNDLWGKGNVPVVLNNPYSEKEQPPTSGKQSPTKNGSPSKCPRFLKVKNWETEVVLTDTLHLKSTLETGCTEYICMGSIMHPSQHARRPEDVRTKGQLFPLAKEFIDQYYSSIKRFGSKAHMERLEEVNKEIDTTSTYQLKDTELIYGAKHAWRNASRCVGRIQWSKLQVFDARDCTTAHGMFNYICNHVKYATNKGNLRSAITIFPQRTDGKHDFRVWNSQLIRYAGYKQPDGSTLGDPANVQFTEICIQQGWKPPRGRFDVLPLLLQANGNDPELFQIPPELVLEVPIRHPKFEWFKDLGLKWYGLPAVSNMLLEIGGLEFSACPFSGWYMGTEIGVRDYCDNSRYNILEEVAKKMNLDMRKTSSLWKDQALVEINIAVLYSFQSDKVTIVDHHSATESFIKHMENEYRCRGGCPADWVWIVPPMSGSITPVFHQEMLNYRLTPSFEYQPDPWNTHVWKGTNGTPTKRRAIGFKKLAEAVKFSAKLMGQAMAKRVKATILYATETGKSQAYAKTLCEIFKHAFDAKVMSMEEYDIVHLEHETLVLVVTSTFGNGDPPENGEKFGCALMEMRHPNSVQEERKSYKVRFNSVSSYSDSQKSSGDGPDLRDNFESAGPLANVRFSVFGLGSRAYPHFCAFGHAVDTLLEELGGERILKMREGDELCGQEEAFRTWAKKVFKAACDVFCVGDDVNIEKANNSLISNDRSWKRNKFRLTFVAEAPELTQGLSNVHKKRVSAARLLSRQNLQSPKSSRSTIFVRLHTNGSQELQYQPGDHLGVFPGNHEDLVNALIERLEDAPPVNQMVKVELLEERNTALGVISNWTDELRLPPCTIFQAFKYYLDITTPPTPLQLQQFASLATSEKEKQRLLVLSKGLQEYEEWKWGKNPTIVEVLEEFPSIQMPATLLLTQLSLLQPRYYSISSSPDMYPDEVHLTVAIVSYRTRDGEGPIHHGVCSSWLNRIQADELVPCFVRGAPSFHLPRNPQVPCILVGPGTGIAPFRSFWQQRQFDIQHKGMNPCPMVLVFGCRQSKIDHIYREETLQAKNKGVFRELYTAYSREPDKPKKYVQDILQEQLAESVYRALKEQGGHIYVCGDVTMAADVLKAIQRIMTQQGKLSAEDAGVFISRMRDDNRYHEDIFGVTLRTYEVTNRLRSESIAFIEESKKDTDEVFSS

| SMILES | Ratio e/n [1] | IC50 [1] | IC50 [2] | IC50 [3] |
| --- | --- | --- | --- | --- |
| N=C(Nc1ccc2c(ccn2CCCNC23CC4CC(CC(C4)C2)C3)c1)c1cccs1 [Compound 42, N-(1-(3-adamantanaminopropyl)-1H-indol-5-yl)thiophene-2-carboximidamide] | 8.67 | 0.36 µM | 3.15 µM |  |
| CCCN[C@H]1CC[C@H](c2c[nH]c3cc(NC(=N)c4cccs4)ccc32)CC1 [Compound 138, N-(3-((1r,4r)-4-(propylamino)cyclohexyl)-1H-indol-6-yl)thiophene-2-carboximidamide] | 15.83 | 0.72 µM | 11.4 µM |  |
| CN1CCCCC1CCn1ccc2cc(NC(=N)c3cccs3)ccc21 (stereo not shown) [Compound 62, N-(1-(2-(1-methylpiperidin-2-yl)ethyl)-1H-indol-5-yl)thiophene-2-carboximidamide] | 68.01 | 0.09 µM | 6.4 µM |  |
| Cc1cc2cc(NC(=N)c3cccs3)ccc2n1CCN1CCCC1 [Compound 28, N-(2-methyl-1-(2-(pyrrolidin-1-yl)ethyl)-1H-indol-5-yl)thiophene-2-carboximidamide] | 7.41 | 0.2 µM | 1.49 µM |  |
| CN1CCCC1CCn1ccc2cc(CNC(=N)c3cccs3)ccc21 (stereo not shown) [Compound 37, N-((1-(2-(1-methylpyrrolidin-2-yl)ethyl)-1H-indol-5-yl)methyl)thiophene-2-carboximidamide] | 1.24 | 73 µM | 91 µM |  |
| N=C(Nc1ccc2c(ccn2CCN2CCCCC2)c1)c1cccs1 [Compound 96, N-(1-(2-(piperidin-1-yl)ethyl)-1H-indol-5-yl)thiophene-2-carboximidamide] | 53.80 | 0.17 µM | 9.2 µM |  |
| CC(C)NC1CCC(c2c[nH]c3cc(NC(=N)c4cccs4)ccc23)CC1 (stereo not shown) [Compound 142] | 23.6 | 0.29 µM | 6.99 µM |  |
| N=C(Nc1ccc2c(ccn2CCCN2CCOCC2)c1)c1cccs1 [Compound 40, N-(1-(3-morpholinopropyl)-1H-indol-5-yl)thiophene-2-carboximidamide] | 9.09 | 0.66 µM | 6 µM |  |
| N=C(Nc1ccc2c(ccn2-c2ccc(N)nc2)c1)c1cccs1 [Compound 77, N-(1-(6-aminopyridin-3-yl)-1H-indol-5-yl)thiophene-2-carboximidamide] | 5.54 | 0.55 µM | 3.08 µM |  |
| CN1CCC[C@H]1Cn1ccc2cc(NC(=N)c3cccs3)ccc21 [Compound 104, (S)—N-(1-((1-methylpyrrolidin-2-yl)methyl)-1H-indol-5-yl)thiophene-2-carboximidamide] | 30.2 | 0.11 µM | 3.35 µM |  |
| CN1CCCC1CCn1ccc2cc(NC(=N)c3cccs3)ccc21 (single isomer, unassigned) [(+)−57] |  |  | 3.37 µM | 22 µM |
| CN(C)CCCn1ccc2cc(NC(=N)c3cccs3)ccc21 [Compound 48, N-(1-(3-(dimethylamino)propyl)-1H-indol-5-yl)thiophene-2-carboximidamide] |  |  | 12.4 µM |  |
| N=C(Nc1ccc2c(ccn2CCCNC2CC2)c1)c1cccs1 [Compound 46, N-(1-(3-(cyclopropylamino)propyl)-1H-indol-5-yl)thiophene-2-carboximidamide] | 32.53 | 0.26 µM | 8.72 µM |  |
| CN1CCC(c2c[nH]c3cc(NC(=N)c4cccs4)ccc23)C1 (stereo not shown) [Compound 117, N-(3-(1-methylpyrrolidin-3-yl)-1H-indol-6-yl) thiophene-2-carboximidamide] | 35.45 | 0.2 µM | 7.09 µM |  |
| CNC1CC=C(c2c[nH]c3cc(NC(=N)c4cccs4)ccc23)CC1 (stereo not shown) [Compound 125, N-(3-(4-(methylamino)cyclohex-1-enyl)-1H-indol-6-yl)thiophene-2-carboximidamide] | 46.4 | 0.45 µM | 21 µM |  |
| Cc1cc2cc(NC(=N)c3cccs3)ccc2n1CCC1CCCN1C (stereo not shown) [Compound 32, N-(2-methyl-1-(2-(1-methylpyrrolidin-2-yl)ethyl)-1H-indol-5-yl)thiophene-2-carboximidamide] | 20.2 | 0.14 µM | 2.87 µM |  |
| N=C(Nc1ccc2c(ccn2C2CCOCC2)c1)c1cccs1 [Compound 90, N-(1-(tetrahydro-2H-pyran-4-yl)-1H-indol-5-yl)thiophene-2-carboximidamide] | 9.34 | 1.04 µM | 9.72 µM |  |
| CCN1CCCC1CNCCCn1ccc2cc(NC(=N)c3cccs3)ccc21 (stereo not shown) [Compound 44, N-(1-(3-((1-ethylpyrrolidin-2-yl)methylamino)propyl)-1H-indol-5-yl)thiophene-2-carboximidamide] |  |  | 6.33 µM |  |
| CN1CCCC(n2ccc3cc(NC(=N)c4ccco4)ccc32)CC1 (stereo not shown) [Compound 54, N-(1-(1-methylazepan-4-yl)-1H-indol-5-yl)furan-2-carboximidamide] |  |  | 38.5 µM | 49 µM |
| CN(C)CCn1ccc2cc(NC(=N)c3cccs3)ccc21 [Compound 93, N-(1-(2-(dimethylamino)ethyl)-1H-indol-5-yl)thiophene-2-carboximidamide] | 21.3 | 0.17 µM | 3.7 µM |  |
| CNC1CCC(c2c[nH]c3cc(NC(=N)c4cccs4)ccc23)CC1 (stereo not shown) [Compound 123, N-(3-(4-(methylamino)cyclohexyl)-1H-indol-6-yl)thiophene-2-carboximidamide] | 28.96 | 0.32 µM | 9.47 µM |  |
| N=C(Nc1ccc2c(c1)cc(-c1ccc([N+](=O)[O-])cc1)n2CCN1CCCCC1)c1cccs1 [Compound 18, N-(2-(4-nitrophenyl)-1-(2-(piperidin-1-yl)ethyl)-1H-indol-5-yl)thiophene-2-carboximidamide] |  | 0.41 µM | 19 µM |  |
| CN1CCCC1CCn1ccc2cc(NC(=N)c3ccco3)ccc21 (stereo not shown) [Compound 53, N-(1-(2-(1-methylpyrrolidin-2-yl)ethyl)-1H-indol-5-yl)furan-2-carboximidamide] |  |  | 13.9 µM |  |
| CN1CCCC1CCn1c(Cc2ccccc2)cc2cc(NC(=N)c3cccs3)ccc21 (stereo not shown) [Compound 6, N-(2-benzyl-1-(2-(1-methylpyrrolidin-2-yl)ethyl)-1H-indol-5-yl)thiophene-2-carboximidamide] | 41.57 | 0.19 µM | 7.9 µM |  |
| N=C(Nc1ccc2c(ccn2-c2cccnc2)c1)c1cccs1 [Compound 74, N-(1-(pyridin-3-yl)-1H-indol-5-yl)thiophene-2-carboximidamide] | 6.74 | 0.38 µM | 2.57 µM |  |
| Cc1cc2cc(NC(=N)c3cccs3)ccc2n1CCN(C)C [Compound 25, N-(1-(2-(dimethylamino)ethyl)-2-methyl-1H-indol-5-yl)thiophene-2-carboximidamide] | 3.88 | 0.82 µM | 3.18 µM |  |
| N=C(Nc1ccc2c(C3=CN4CCC3CC4)c[nH]c2c1)c1cccs1 [Compound 111, N-(3-(1-azabicyclo[2.2.2]oct-2-en-3-yl)-1H-indol-6-yl)thiophene-2-carboximidamide] | 30.19 | 1.53 µM | 46.2 µM |  |
| CN1CCCC1CCn1ccc2cc(NC(=N)c3cccs3)ccc21 (stereo not shown) [Compound 56, N-(1-(2-(1-methylpyrrolidin-2-yl)ethyl)-1H-indol-5-yl)thiophene-2-carboximidamide] |  |  | 4.49 µM |  |
